Experiments:
PKBα [Ser473Asp] = biological target: T1, PKBα [Ser473Asp] (Homo sapiens, UniProt P31749, S473D); assay: Protein kinase activity assay, PKBα; format: biochemical; conditions: Table I a; percentage of catalytic activity compared to DMSO; Crosstide substrate
T1 construct: made in house; host or cells: HEK293
Experimental: (§1) For the expression and purification of protein kinases fused to GST, pEBG-2T derived plasmids were transfected into 8×14.5 cm dishes containing HEK293 cells using the PEI method ([…] and […]/14.5 cm dish). The cells were lysed after 48 h in a buffer containing 50 mM Tris-HCl pH 7.5, 1 mM EGTA, 1 mM EDTA, 1% (w/v) Triton X-100, 1 mM sodium orthovanadate, […], 5 mM sodium pyrophosphate, 0.27 M sucrose, 0.1% β-mercaptoethanol, and 1 tablet of protease inhibitor cocktail per 50 ml of buffer. Lysates were frozen in liquid nitrogen and kept at −80° C. until required. Purification involved incubation of the cleared lysate with glutathione sepharose, followed by 2 washes with 0.5 M NaCl in lysis buffer, 8 washes with a buffer containing 50 mM Tris-HCl, 0.1 mM EGTA and 0.1% β-mercaptoethanol (buffer A), and a last wash with buffer A supplemented with 0.26 M sucrose. […]
(§2) The protein kinase activity assays were performed essentially as previously described (Engel, M. et al. Embo J 25, 5469-80 (2006)). The assays were done in a 96-well format and 4 μl aliquots spotted on P81 phospho-cellulose papers (Whatman) using epMotion 5070 (Eppendorf), washed in 0.01% phosphoric acid, dried, and then exposed and analyzed using PhosphoImager technology (FLA-9000 Starion, Fujifilm). […]

SGK = biological target: T2, SGK (Homo sapiens, UniProt O00141, S422D); assay: Protein kinase activity assay, SGK; format: biochemical; conditions: Table I a; percentage of catalytic activity compared to DMSO; Crosstide substrate
T2 construct: made in house; host or cells: HEK293
T2 sequence (O00141 61-431 S422D limits assumed): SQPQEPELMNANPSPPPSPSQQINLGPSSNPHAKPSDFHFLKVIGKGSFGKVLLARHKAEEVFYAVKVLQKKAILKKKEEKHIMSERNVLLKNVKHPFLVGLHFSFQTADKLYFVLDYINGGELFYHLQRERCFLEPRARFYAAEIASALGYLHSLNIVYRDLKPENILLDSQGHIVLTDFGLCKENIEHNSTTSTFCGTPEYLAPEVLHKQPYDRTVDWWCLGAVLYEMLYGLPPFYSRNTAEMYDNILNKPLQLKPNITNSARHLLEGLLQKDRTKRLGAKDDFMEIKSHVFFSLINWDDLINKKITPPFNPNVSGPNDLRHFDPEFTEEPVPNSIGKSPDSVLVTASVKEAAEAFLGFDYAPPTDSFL
Experimental: as §1, §2

T1 sequence (P31749 whole entry S473D): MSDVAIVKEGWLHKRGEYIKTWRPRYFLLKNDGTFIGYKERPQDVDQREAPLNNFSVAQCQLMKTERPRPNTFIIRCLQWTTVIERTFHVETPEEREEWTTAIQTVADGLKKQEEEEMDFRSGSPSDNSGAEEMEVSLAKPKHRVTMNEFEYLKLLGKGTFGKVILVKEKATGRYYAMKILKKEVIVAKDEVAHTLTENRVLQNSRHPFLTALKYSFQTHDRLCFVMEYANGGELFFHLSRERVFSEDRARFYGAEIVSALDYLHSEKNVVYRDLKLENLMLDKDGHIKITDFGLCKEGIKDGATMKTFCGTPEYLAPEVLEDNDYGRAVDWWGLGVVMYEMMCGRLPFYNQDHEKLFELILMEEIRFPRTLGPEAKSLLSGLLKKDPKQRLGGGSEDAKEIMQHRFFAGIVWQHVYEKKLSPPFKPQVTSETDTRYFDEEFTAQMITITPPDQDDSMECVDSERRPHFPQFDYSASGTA

Row | Compound | Activity (%) PKBα (PKBα [Ser473Asp]) [%] | Activity (%) SGK (SGK) [%]
1 | Cl.O=C(O)CC(Cc1nc2cc(-c3ccccc3)ccc2[nH]1)c1ccc(Cl)cc1 (stereo not shown) [PS168] | 87 | 93
2 | Cl.O=C(O)CC(Cc1nc2c(Cl)cc(Cl)cc2[nH]1)c1ccc(Cl)cc1 (stereo not shown) [PS171] | 94 | 97
